# Measurements as given in US20220378802A1, “TREATMENT OF ALCOHOLIC HEPATITIS” (Durect Corporation, priority 2019, published 2022).
# Entries after “also recorded” stand apart in the source; their conditions may differ.
# Columns and labels:
# [1] = Pharmacokinetics of 25HC3S in healthy subjects (earlier study); assay type: in vivo, human; conditions: Healthy subjects (N = 5), single dose of 150 mg
# Source text: The clearance of 25HC3S sodium was decreased by 80% in AH patients as compared to that in healthy subjects from an earlier study. A comparison of the pharmacokinetic parameters of 25HC3S administered to healthy subjects versus subjects with alcoholic hepatitis is summarized in the following Table. A comparison of the plasma concentration of 25HC3S administered to healthy subjects versus subjects with alcoholic hepatitis is depicted in FIG. 5.
# [2] = system: patients with alcoholic hepatitis; experiment: Pharmacodynamic signals (Lille score, MELD, bilirubin, survival) in Phase 2a trial; assay type: in vivo, human
# Procedure: As described in more detail below, a total of 19 patients were enrolled into an open-label Phase 2a multi-center trial, of whom 15 had Maddrey's Discriminant Function (MDF) ≥32 (Severe Alcoholic Hepatitis (SAH)), 12 had MELD scores at 21-30, and 11 had baseline serum bilirubin levels >8 mg/dL. All patients received IV infused 25HC3S (at 30, 90, or 150 mg) on Day 1 and Day 4 (if still hospitalized), and were followed for 28-days. The final enrollment was 19 patients comprised of: 8 patients (4 moderate and 4 severe) dosed at 30 mg, 7 patients (3 moderate and 4 severe) dosed at 90 mg, and 4 patients (4 severe) dosed at 150 mg.
# • Study Drug A 25HC3S sodium salt solution contained: • 30 mg/mL 25HC3S sodium salt; • 240 mg/mL hydroxypropyl-beta-cyclodextrin; and • 50 mmole phosphate buffer • The 25HC3S sodium salt solution was diluted in 100 mL 5% dextrose or 0.9% sodium chloride infusion solution: • Dose 1: 30 mg of 25HC3S sodium salt in 100 mL 5% dextrose or 0.9% sodium chloride • Dose 2: 90 mg of 25HC3S sodium salt in 100 mL 5% dextrose or 0.9% sodium chloride • Dose 3: 150 mg of 25HC3S sodium salt in 100 mL 5% dextrose or 0.9% sodium chloride • 25HC3S sodium salt was administered by slow intravenous infusion over 2 hrs (50 mL/h) until the entire dose is given at Day 1 and Day 4. If a patient met the hospital discharge criteria prior to the second dose, the patient received only one dose instead of two doses. • Study Procedure The study was conducted in two parts. Part A included patients with MELD scores of 11-20 (moderate AH patients), and Part B included patients with MELD of scores 21-30. The doses of 25HC3S sodium salt administered were 30 mg and 90 mg for Part A and 30 mg, 90 mg and 150 mg for Part B, with 4 patients per dose group per Part (except for only 3 patients in the 90 mg cohort of Part A). All patients were followed to Day 28. • The study started in 4 moderate AH patients (Part A) at 30 mg dose level. After completing the dosing, a Dose Escalation Committee (DEC) reviewed safety, tolerability and pharmacokinetic (PK) data from all 4 patients and determined that it was safe to move forward to dose 4 severe AH patients (Part B) at the same dose level, 30 mg, as well as escalating the dose level to 90 mg in moderate patients (Part A). The same dose escalation procedure was then conducted in Part B until all 4 patients received 150 mg doses. • A flow diagram of the study is depicted in FIG. 2. Each dose cohort enrolled up to 4 subjects. Study subjects received up to 2 doses of 25HC3S sodium salt. The first dose was administered on Day 1 and, if still hospitalized, the second dose was administered on Day 4. A pharmacokinetic (PK) sample was collected at: Time 0 (pre-dose), 1 hour post-dose initiation, 2 hours (end of infusion), 3 hours post-dose initiation, 4 hours post-dose initiation, 8 hours post-dose initiation, 12 hours post-dose initiation, 24-hours post-dose initiation and 50 hours post-dose initiation.
# • 1. Patients with alcoholic hepatitis defined in this clinical trial as: • a. History of heavy alcohol abuse: >40 g/day in females or >60 g/day in males for a minimum period of 6 months, AND • b. Consumed alcohol within 12 weeks of entry into the study, AND • c. Serum bilirubin >3 mg/dL AND AST>ALT, but less than 300 U/L, AND • d. MELD score between 11-30, inclusive A listing of the baseline laboratory characteristics of the subjects of each cohort is shown in the Table below. […]
# [3] = All patients with 30 or 90 mg (14), Day 7
# [4] = Baseline bilirubin >8 mg/dL (11), Day 7
# [5] = Baseline bilirubin >8 mg/dL with 30 or 90 mg (8), Day 7
# [6] = MELD 21-30 with 30 or 90 mg (8), Day 7
# [7] = SAH with 30 or 90 mg (11), Day 7
smiles,measurement,setting,value
"C[C@H](CCCC(C)(C)O)[C@H]1CC[C@H]2[C@@H]3CC=C4C[C@@H](OS(=O)(=O)O)CC[C@]4(C)[C@H]3CC[C@]12C [25HC3S, 5-cholesten-3,25-diol, 3-sulfate]",V,[1],55.0 (4.3) L
same,AUC(0-inf),"[1]; human, plasma",6190 ng·h/mL
same,Cmax,"[1]; human, plasma",3100 ng/mL
same,clearance,"[1]; human, plasma",408 mL/min
same,half-life,"[1]; human, plasma, read-out: T½ (converted)",1.6 h
same,patients with a Lille score below 0.45 (number of patients),[2]; 18 AH patients who returned for Day 7 visit,16/18
same,reductions from baseline in bilirubin (day 7 and 28) and MELD (day 28) compared with University of Louisville historical control,[2]; 19 patients,statistically significantly greater reductions
same,survival rate,"[2]; 28-day follow-up period, all patients",100%
same,Responders (Lille score <0.45),"[2]; All Patients (18), Day 7",89%
same,"Lille Median (1st, 3rd quartile)",[2]; [3],"0.05 (0.04, 0.19)"
same,Responders (Lille score <0.45),[2]; [3],100%
same,"Lille Median (1st, 3rd quartile)",[2]; [4],"0.10 (0.05, 0.20)"
same,Responders (Lille score <0.45),[2]; [4],82%
same,"Lille Median (1st, 3rd quartile)",[2]; [5],"0.10 (0.05, 0.19)"
same,Responders (Lille score <0.45),[2]; [5],100%
same,serum bilirubin levels,"[2]; Day 7, one or two doses",significantly reduced
same,MELD scores,"[2]; Day 28, one or two doses",significantly reduced
same,"Lille Median (1st, 3rd quartile)","[2]; MELD 21-30 (12), Day 7","0.19 (0.11, 0.25)"
same,Responders (Lille score <0.45),"[2]; MELD 21-30 (12), Day 7",83%
same,"Lille Median (1st, 3rd quartile)",[2]; [6],"0.19 (0.10, 0.19)"
same,Responders (Lille score <0.45),[2]; [6],100%
same,"Lille Median (1st, 3rd quartile)","[2]; SAH (15), Day 7","0.19 (0.05, 0.22)"
same,median reduction of MELD from baseline,"[2]; SAH patients treated with 30 or 90 mg, Day 28, p=0.01",−19.0%
same,MELD score change from baseline,"[2]; SAH patients, Day 28, 1 or 2 doses, p=0.01",−17.5%
same,"Lille Median (1st, 3rd quartile)",[2]; [7],"0.12 (0.05, 0.19)"
same,Responders (Lille score <0.45),[2]; [7],100%
same,Responders (Lille score <0.45),"[2]; SAH, MDF≥32 (15), Day 7",87%
same,reduction from baseline of serum total bilirubin levels,"[2]; all AH patients (n=18), Day 7",−14%
same,survival through 28-day follow-up period,"[2]; all patients, including SAH",survived
same,Lille score at Day 7,[2]; all subjects administered 30 mg and 90 mg (FIG. 6),less than 0.45
same,"Lille scores compared with published historical data (Louvet et al., 145 AH patients)",[2]; p<0.0001,significantly lower; also recorded: significantly better
same,Lille scores compared with University of Louisville historical control (standard of care),[2]; p=0.005,statistically significantly lower
same,serum bilirubin change,"[2]; patients with baseline bilirubin >8.0 mg/dL, Day 7, p=0.02",−25.1%
same,Lille score at Day 7,[2]; two of the subjects having severe AH administered 150 mg (FIG. 6),greater than 0.45
